Assay results published in patent US11053206B2, “Hydrofluorocarboximidate and methods of making and using the same” (3M INNOVATIVE PROPERTIES COMPANY, priority 2017, dated 2021).

Experiment: Thermal stability (purity by GC-FID after heating with absorbent)
Format: physicochemical
Conditions: initial purity 97.7%
Method: The samples were stirred for 24 h at 50° C. and then analyzed for purity by GC-FID. The % purity EX-6 initially was 97.7%. Shown in Table 2 below are the % purity after the thermal stability test. All of the results are within error of the test method.

Question: For `CO/C(=N\C(F)(F)C(F)(F)C(F)(F)F)C(F)(F)C(F)(F)F` [EX-6, methyl 2,2,3,3,3-pentafluoro-N-(perfluoropropyl)propanimidate], which “Purity (%) after thermal stability test” value (100 mg 4 Angstrom Molecular Sieves, 1 g stirred 24 h at 50° C.) is on record?
Answer: 98.0%

Question: What about the “Purity (%) after thermal stability test” value (100 mg Activated Carbon, 1 g stirred 24 h at 50° C.) of the same compound?
Answer: 98.2%

Question: What about the “Purity (%) after thermal stability test” value (100 mg Basic Alumina, 1 g stirred 24 h at 50° C.) of the same compound?
Answer: 98.0%

Question: What about the “Purity (%) after thermal stability test” value (100 mg K2CO3, 1 g stirred 24 h at 50° C.) of the same compound?
Answer: 97.9%

Question: What about the “Purity (%) after thermal stability test” value (100 mg Silica Gel, 1 g stirred 24 h at 50° C.) of the same compound?
Answer: 97.9%

Question: And the “Purity (%) after thermal stability test” value (No absorbent, 1 g stirred 24 h at 50° C.)?
Answer: 97.7%
